Patent US10065950B2, “Substituted thiazoles as HIV integrase inhibitors” (Japan Tobacco Inc., priority 2010, dated 2018)

target: HIV-1 pNL4-3 integrase (Human immunodeficiency virus type 1 group M subtype B (isolate NY5) (HIV-1), UniProt P12497); assay: Determination of enzyme (HIV integrase) inhibitory activity; assay type: biochemical; settings: calculated from inhibition rate (fluorescence)
Outline: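 Full-length pNL4-3 integrase from E. coli (0.75 μM stock) reacted 60 min at 37° C with compound and biotinylated donor DNA bound to streptavidin plates, in MOPS buffer with 5 mM MgCl2 and 10% DMSO. Digoxigenin-labelled target DNA (25 nM stock) then added for 20 min; strand transfer read by peroxidase anti-digoxigenin fluorescence (Ex 325/Em 420 nm).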

SMILES	IC50
CCNC(=O)[C@@]1(C)CN(C(C)C)C(=O)c2c(O)c(=O)c(-c3ncc(Cc4ccc(F)cc4)s3)cn21 [Example 239]	16 nM
COC[C@H]1CN(C(C)C)C(=O)c2c(O)c(=O)c(-c3nnc(Cc4ccc(OC)cc4)s3)cn21 [Example 240]	52 nM
COC[C@H]1CN(C(C)C)C(=O)c2c(O)c(=O)c(-c3nnc(CCc4ccc(F)cc4)s3)cn21 [Example 241]	14 nM
COC[C@H]1CN(C(C)C)C(=O)c2c(O)c(=O)c(-c3nnc(CCCc4ccc(F)cc4)s3)cn21 [Example 242]	13 nM
COC[C@H]1CN(C(C)C)C(=O)c2c(O)c(=O)c(-c3nnc(Cc4ccc(F)c(Cl)c4)s3)cn21 [Example 243]	7.6 nM
COC[C@H]1CN(C(C)C)C(=O)c2c(O)c(=O)c(-c3nnc(Cc4ccc(C(F)(F)F)cc4)s3)cn21 [Example 244]	74 nM
CC(C)N1C[C@@](C)(C(=O)NC2CC2)n2cc(-c3ncc(Cc4ccc(F)cc4)s3)c(=O)c(O)c2C1=O [Example 245]	8.1 nM
CC(C)N1C[C@@](C)(C(=O)NCC2CC2)n2cc(-c3ncc(Cc4ccc(F)cc4)s3)c(=O)c(O)c2C1=O [Example 246]	8.4 nM
COC[C@@H]1[C@H](C)n2cc(-c3ncc(Cc4ccc(F)cc4)s3)c(=O)c(O)c2C(=O)N1C(C)C [Example 247]	10 nM
CCN1C[C@@](C)(C(=O)N(C)C)n2cc(-c3ncc(Cc4ccc(F)cc4)s3)c(=O)c(O)c2C1=O [Example 248]	14 nM
CCNC(=O)[C@]1(C)CN(CC)C(=O)c2c(O)c(=O)c(-c3ncc(Cc4ccc(F)cc4)s3)cn21 [Example 249]	12 nM
COC[C@H]1CN(C(C)C)C(=O)c2c(O)c(=O)c(-c3nnc(Cc4ccc(F)c(OC)c4)s3)cn21 [Example 250]	17 nM
COC[C@H]1CN(C(C)C)C(=O)c2c(O)c(=O)c(-c3nnc(Cc4ccc(F)cc4C4CC4)s3)cn21 [Example 251]	11 nM
CCN1C(=O)c2c(O)c(=O)c(-c3ncc(Cc4ccc(F)cc4)s3)cn2C[C@@]1(C)C(=O)NC [Example 252]	9.2 nM
CCN1C(=O)c2c(O)c(=O)c(-c3ncc(Cc4ccc(F)cc4)s3)cn2C[C@@]1(C)C(=O)N(C)C [Example 253]	7.7 nM
CCN1C(=O)c2c(O)c(=O)c(-c3ncc(Cc4ccc(F)cc4)s3)cn2C[C@@]1(C)C(=O)N1CCCC1 [Example 254]	7.6 nM
C[C@]1(C(=O)N2CCC2)CN(CC2CC2)C(=O)c2c(O)c(=O)c(-c3ncc(Cc4ccc(F)cc4)s3)cn21 [Example 255]	9 nM
COC[C@H]1[C@@H](C)N(C(C)C)C(=O)c2c(O)c(=O)c(-c3nnc(Cc4ccc(F)cc4)s3)cn21 [Example 256]	8.2 nM
COC[C@@H]1[C@H](C)n2cc(-c3nnc(Cc4ccc(F)cc4)s3)c(=O)c(O)c2C(=O)N1CC1CC1 [Example 257]	9.1 nM
CCN1C(=O)c2c(O)c(=O)c(-c3nnc(Cc4ccc(F)cc4)s3)cn2[C@@H](COC)[C@H]1C [Example 258]	9.3 nM
COC[C@H]1[C@@H](C)N(CC2CC2)C(=O)c2c(O)c(=O)c(-c3nnc(Cc4ccc(F)cc4)s3)cn21 [Example 259]	9 nM
CCN1C(=O)c2c(O)c(=O)c(-c3ncc(Cc4ccc(F)cc4)s3)cn2[C@@H](C)[C@H]1COC [Example 260]	12 nM
CCN1C(=O)c2c(O)c(=O)c(-c3ncc(Cc4ccc(F)cc4)s3)cn2[C@@H](COC)[C@H]1C [Example 261]	11 nM
COC1CN(C(=O)[C@@]2(C)CN(CC3CC3)C(=O)c3c(O)c(=O)c(-c4ncc(Cc5ccc(F)cc5)s4)cn32)C1 [Example 262]	10 nM
CCN1C[C@](C)(C(=O)N2CC(OC)C2)n2cc(-c3ncc(Cc4ccc(F)cc4)s3)c(=O)c(O)c2C1=O [Example 263]	9 nM

SMILES	IC50
CN(C)C(=O)[C@]1(C)CN(C)C(=O)c2c(O)c(=O)c(-c3ncc(Cc4ccc(F)cc4)s3)cn21 [Example 264]	8.5 nM
CCN(C)C(=O)[C@]1(C)CN(C)C(=O)c2c(O)c(=O)c(-c3ncc(Cc4ccc(F)cc4)s3)cn21 [Example 265]	9.3 nM
CN1C[C@@](C)(C(=O)N2CCC2)n2cc(-c3ncc(Cc4ccc(F)cc4)s3)c(=O)c(O)c2C1=O [Example 266]	11 nM
CCNC(=O)[C@]1(C)CN(C2CC2)C(=O)c2c(O)c(=O)c(-c3ncc(Cc4ccc(F)cc4)s3)cn21 [Example 267]	11 nM
C[C@@]1(C(=O)N2CCC2)CN(C2CC2)C(=O)c2c(O)c(=O)c(-c3ncc(Cc4ccc(F)cc4)s3)cn21 [Example 268]	15 nM
CCN1C[C@](C)(CO)n2cc(-c3nnc(Cc4ccc(F)cc4)s3)c(=O)c(O)c2C1=O [Example 269]	9.4 nM
CCN1C(=O)c2c(O)c(=O)c(-c3nnc(Cc4ccc(F)cc4)s3)cn2C[C@@]1(C)COC [Example 270]	9.5 nM
CCN1C[C@@](C)(C(=O)N2CCC2)n2cc(-c3ncc(Cc4ccc(F)cc4)s3)c(=O)c(O)c2C1=O [Example 271]	11 nM
COC1CN(C(=O)CC2CN(C(C)C)C(=O)c3c(O)c(=O)c(-c4ncc(Cc5ccc(F)cc5F)s4)cn32)C1 (stereo not shown) [Example 272]	8.9 nM
C[C@@H](C1CC1)N1C[C@](C)(C(=O)N2CCC2)n2cc(-c3ncc(Cc4ccc(F)cc4)s3)c(=O)c(O)c2C1=O [Example 273]	14 nM
COC1CN(C(=O)[C@@]2(C)CN([C@@H](C)C3CC3)C(=O)c3c(O)c(=O)c(-c4ncc(Cc5ccc(F)cc5)s4)cn32)C1 [Example 274]	12 nM
C[C@@H](C1CC1)N1C[C@](C)(C(=O)N(C)C)n2cc(-c3ncc(Cc4ccc(F)cc4)s3)c(=O)c(O)c2C1=O [Example 275]	14 nM
CCNC(=O)[C@@]1(C)CN([C@@H](C)C2CC2)C(=O)c2c(O)c(=O)c(-c3ncc(Cc4ccc(F)cc4)s3)cn21 [Example 276]	16 nM
COC[C@H]1CN(C(C)C)C(=O)c2c(O)c(=O)c(-c3nnc(Cc4cc(OC)c(F)cc4F)s3)cn21 [Example 277]	12 nM
CC[C@@H]1Cn2cc(-c3nnc(Cc4ccc(F)cc4)s3)c(=O)c(O)c2C(=O)N1C(C)C [Example 278]	9.9 nM
C[C@@H]1Cn2cc(-c3nnc(Cc4ccc(F)cc4)s3)c(=O)c(O)c2C(=O)N1CC1CC1 [Example 279]	6.3 nM
C[C@H](C1CC1)N1C[C@](C)(C(=O)N2CCC2)n2cc(-c3ncc(Cc4ccc(F)cc4)s3)c(=O)c(O)c2C1=O [Example 280]	16 nM
COC1CN(C(=O)[C@@]2(C)CN([C@H](C)C3CC3)C(=O)c3c(O)c(=O)c(-c4ncc(Cc5ccc(F)cc5)s4)cn32)C1 [Example 281]	16 nM
C[C@H](C1CC1)N1C[C@](C)(C(=O)N(C)C)n2cc(-c3ncc(Cc4ccc(F)cc4)s3)c(=O)c(O)c2C1=O [Example 282]	15 nM
CCNC(=O)[C@@]1(C)CN([C@H](C)C2CC2)C(=O)c2c(O)c(=O)c(-c3ncc(Cc4ccc(F)cc4)s3)cn21 [Example 283]	18 nM
CCN1C(=O)c2c(O)c(=O)c(-c3nnc(Cc4ccc(F)cc4)s3)cn2[C@@H](COC)[C@@H]1C [Example 284]	11 nM
COC[C@H]1[C@H](C)N(C(C)C)C(=O)c2c(O)c(=O)c(-c3nnc(Cc4ccc(F)cc4)s3)cn21 [Example 285]	11 nM
CCN1C(=O)c2c(O)c(=O)c(-c3nnc(Cc4ccc(F)cc4)s3)cn2C[C@H]1C(C)C [Example 286]	7.8 nM
CCN1C(=O)c2c(O)c(=O)c(-c3nnc(Cc4ccc(F)cc4)s3)cn2C[C@@H]1C(C)C [Example 287]	8 nM
